According to US8742106B2 (Novartis AG, priority 2009, dated 2014):

What was measured:
human orexin 2 receptors = human orexin 2 receptors (Homo sapiens (Human), UniProt O43614); experiment: Calcium Accumulation in Cells (FLIPR), antagonism of orexin A; format: cell-based; settings: for inhibition at 10 µM: measured at a concentration of 10 μM of compound, read-out: FLIPR hOx2R % inhibition value; for Ki: antagonism of orexin A, Cheng-Prusoff corrected, read-out: FLIPR hOx2R Ki
Protocol: (§1) Calcium Accumulation in Cells (FLIPR):
Cells expressing human orexin 1 or human orexin 2 receptors, were seeded at 8,000 cells/well in 384 well black-walled clear bottom, poly-D-lysine coated plates.
On the day of the experiment, the cells seeded in black plates were treated with assay buffer containing the Ca^2+ sensitive fluorescent dye Fluo4-AM (2 μM), and probenecid (0.1 mM). After 1 h plates were washed twice with, and resuspended in, assay buffer containing probenecid (0.1 mM) using a multi plate washer. […] Fluorescence measurements were then continued every 1 S for 120 S followed by every 4 S for 240 S.
(§2) The measurements were typically made in two sequences:
(§3) In the first round, compounds of formula (I) or (I′) were tested alone, to detect possible agonist activity. Compounds of formula I or I′ were tested usually in a concentration range from 10^−9 M to 10^−5 M.
(§4) In the second round, performed one hour later (to allow for equilibration), Orexin A was tested either in the absence (calibration curves, Orexin A agonist controls) or in the presence of compounds of formula (I) or (I′) to determine antagonism.

human orexin 1 receptors = human orexin 1 receptors (Homo sapiens (Human), UniProt O43613); experiment: as above; format: cell-based; settings: for inhibition at 10 µM: measured at a concentration of 10 μM of compound, read-out: FLIPR hOx1R % inhibition value; for Ki: antagonism of orexin A, Cheng-Prusoff corrected, read-out: FLIPR hOx1R Ki
Sequence of human orexin 1 receptors (O43613 whole entry): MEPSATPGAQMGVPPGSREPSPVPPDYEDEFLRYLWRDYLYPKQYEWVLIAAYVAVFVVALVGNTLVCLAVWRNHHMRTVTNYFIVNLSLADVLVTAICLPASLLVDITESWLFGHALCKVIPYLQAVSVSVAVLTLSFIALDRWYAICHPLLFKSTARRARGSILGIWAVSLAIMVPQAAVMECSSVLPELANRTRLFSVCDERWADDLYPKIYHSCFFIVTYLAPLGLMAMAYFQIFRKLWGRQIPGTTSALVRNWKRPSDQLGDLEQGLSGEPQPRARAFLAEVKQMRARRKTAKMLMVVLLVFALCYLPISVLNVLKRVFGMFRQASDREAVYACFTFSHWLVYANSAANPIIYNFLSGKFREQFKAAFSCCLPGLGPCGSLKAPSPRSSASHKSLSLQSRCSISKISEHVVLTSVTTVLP
Protocol: as §1
Cells expressing human orexin 1 or human orexin 2 receptors, were seeded at 8,000 cells/well in 384 well black-walled clear bottom, poly-D-lysine coated plates. After 24 h, the medium was removed and cells were washed once with phosphate buffered saline and serum-deprived overnight in assay buffer (130 mM NaCl, 5.4 mM KCl, 1.8 mM CaCl2, 0.8 mM MgSO4, 0.9 mM NaH2PO4, 25 mM glucose, 20 mM HEPES, pH 7.4) containing bovine serum albumin (1% w/v).
On the day of the experiment, the cells seeded in black plates were treated with assay buffer containing the Ca^2+ sensitive fluorescent dye Fluo4-AM (2 μM), and probenecid (0.1 mM). After 1 h plates were washed twice with, and resuspended in, assay buffer containing probenecid (0.1 mM) using a multi plate washer. The plates were placed into a FLIPR II (Fluorometric Imaging Plate Reader, Molecular Devices, Sunnyvale, Calif., USA) and baseline fluorescence (fluorescence light units, FLU) was measured (5 measurements, 2 S each; laser excitation 488 nm at 0.6-1 W, CCD camera exposure 0.4 s) before addition of buffer alone (basal) or containing test compounds (either compound of formula (I) or (I′) alone, agonist alone or agonist in the presence of various concentrations of compounds of formula (I) or (I′)). Fluorescence measurements were then continued every 1 S for 120 S followed by every 4 S for 240 S.
as §2, §3, §4

Sequence of human orexin 2 receptors (O43614 whole entry): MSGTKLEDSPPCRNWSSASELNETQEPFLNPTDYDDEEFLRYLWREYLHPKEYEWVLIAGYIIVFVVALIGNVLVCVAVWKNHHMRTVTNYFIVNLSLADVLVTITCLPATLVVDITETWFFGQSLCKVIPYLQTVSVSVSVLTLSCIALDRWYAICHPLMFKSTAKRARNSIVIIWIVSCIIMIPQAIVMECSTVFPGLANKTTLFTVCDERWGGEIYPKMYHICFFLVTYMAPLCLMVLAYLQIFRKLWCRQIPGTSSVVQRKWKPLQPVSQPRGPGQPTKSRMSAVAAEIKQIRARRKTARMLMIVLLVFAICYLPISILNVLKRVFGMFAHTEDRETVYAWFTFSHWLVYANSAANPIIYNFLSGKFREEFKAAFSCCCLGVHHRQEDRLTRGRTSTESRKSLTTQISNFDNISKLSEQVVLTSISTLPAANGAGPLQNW

| SMILES | inhibition at 10 µM (human orexin 2 receptors) | inhibition at 10 µM (human orexin 1 receptors) | Ki (human orexin 1 receptors) | Ki (human orexin 2 receptors) |
| --- | --- | --- | --- | --- |
| CCn1cnnc1C(C)NC(=O)COc1cc(C(F)(F)F)c2c(-c3ccccc3)nn(C)c2n1 (centres unmarked) [Example 1.35, N-(1-(4-ethyl-4H-1,2,4-triazol-3-yl)ethyl)-2-(1-methyl-3-phenyl-4-(trifluoromethyl)-1H-pyrazolo[3,4-b]pyridin-6-yloxy)acetamide] | 22% | 22% | – | – |
| CC(C)c1noc(C(C)NC(=O)COc2cc(C(F)(F)F)c3c(-c4ccccc4)nn(C)c3n2)n1 (centres unmarked) [Example 1.36, N-(1-(3-isopropyl-1,2,4-oxadiazol-5-yl)ethyl)-2-(1-methyl-3-phenyl-4-(trifluoromethyl)-1H-pyrazolo[3,4-b]pyridin-6-yloxy)acetamide] | 30% | – | 3360 nM | – |
| C[C@H](NC(=O)COc1cc(C(F)(F)F)c2c(C(C)(C)C)nn(C)c2n1)c1ccccc1 [Example 1.37, (S)-2-(3-tert-butyl-1-methyl-4-(trifluoromethyl)-1H-pyrazolo[3,4-b]pyridin-6-yloxy)-N-(1-phenylethyl)acetamide] | – | – | 1950 nM | 298 nM |
| Cc1nc(C(C)NC(=O)COc2cc(C(F)(F)F)c3c(-c4ccccc4)nn(C)c3n2)c(C)s1 (centres unmarked) [Example 1.40, N-(1-(2,5-dimethylthiazol-4-yl)ethyl)-2-(1-methyl-3-phenyl-4-(trifluoromethyl)-1H-pyrazolo[3,4-b]pyridin-6-yloxy)acetamide] | – | 37% | – | 2900 nM |
| Cn1nc(-c2ccccc2)c2c(C(F)(F)F)cc(OCC(=O)NCc3ccccc3F)nc21 [Example 1.42, N-(2-fluorobenzyl)-2-(1-methyl-3-phenyl-4-(trifluoromethyl)-1H-pyrazolo[3,4-b]pyridin-6-yloxy)acetamide] | – | – | 1590 nM | 890 nM |
| Cn1nc(-c2ccccc2)c2c(C(F)(F)F)cc(OCC(=O)NCc3cccc(Cl)c3)nc21 [Example 1.43, N-(3-chlorobenzyl)-2-(1-methyl-3-phenyl-4-(trifluoromethyl)-1H-pyrazolo[3,4-b]pyridin-6-yloxy)acetamide] | – | 24% | – | 2060 nM |
| COc1ccccc1C(C)NC(=O)COc1cc(C(F)(F)F)c2c(-c3ccccc3)nn(C)c2n1 (centres unmarked) [Example 1.44, N-(1-(2-methoxyphenyl)ethyl)-2-(1-methyl-3-phenyl-4-(trifluoromethyl)-1H-pyrazolo[3,4-b]pyridin-6-yloxy)acetamide] | – | – | 274 nM | 158 nM |
| C[C@H](NC(=O)COc1cc(C2CC2)c2c(-c3ccccc3)nn(C)c2n1)c1ccccc1 [Example 1.47, (S)-2-(4-cyclopropyl-1-methyl-3-phenyl-1H-pyrazolo[3,4-b]pyridin-6-yloxy)-N-(1-phenylethyl)acetamide] | – | – | 441 nM | 561 nM |
| C[C@H](NC(=O)COc1cc(C(F)(F)F)c2c(C3CC3)nn(C)c2n1)c1ccccc1 [Example 1.50, (S)-2-(3-cyclopropyl-1-methyl-4-(trifluoromethyl)-1H-pyrazolo[3,4-b]pyridin-6-yloxy)-N-(1-phenylethyl)acetamide] | – | – | 730 nM | 168 nM |
| C[C@H](NC(=O)COc1cc(C(F)(F)F)c2c(C3CCCCC3)nn(C)c2n1)c1ccccc1 [Example 1.51, (S)-2-(3-cyclohexyl-1-methyl-4-(trifluoromethyl)-1H-pyrazolo[3,4-b]pyridin-6-yloxy)-N-(1-phenylethyl)acetamide] | – | – | 471 nM | 364 nM |
| C[C@H](NC(=O)COc1cc(C(F)(F)F)c2c(C3CCCC3)nn(C)c2n1)c1ccccc1 [Example 1.52, (S)-2-(3-cyclopentyl-1-methyl-4-(trifluoromethyl)-1H-pyrazolo[3,4-b]pyridin-6-yloxy)-N-(1-phenylethyl)acetamide] | – | – | 1170 nM | 868 nM |
| Cn1nc(-c2ccccc2)c2c(C(F)(F)F)cc(OCC(=O)NC3CC3)nc21 [Example 1.53, N-cyclopropyl-2-(1-methyl-3-phenyl-4-(trifluoromethyl)-1H-pyrazolo[3,4-b]pyridin-6-yloxy)acetamide] | 36% | 14% | – | – |
| Cn1nc(-c2ccccc2)c2c(C(F)(F)F)cc(OCC(=O)NC3CCC3)nc21 [Example 1.54, N-cyclobutyl-2-(1-methyl-3-phenyl-4-(trifluoromethyl)-1H-pyrazolo[3,4-b]pyridin-6-yloxy)acetamide] | 42% | 25% | – | – |
| CCCNC(=O)COc1cc(C(F)(F)F)c2c(-c3ccccc3)nn(C)c2n1 [Example 1.55, 2-(1-methyl-3-phenyl-4-(trifluoromethyl)-1H-pyrazolo[3,4-b]pyridin-6-yloxy)-N-propylacetamide] | – | 23% | – | 767 nM |
| Cn1nc(-c2ccccc2)c2c(C(F)(F)F)cc(OCC(=O)NC3CCCc4ccccc43)nc21 (centres unmarked) [Example 1.56, 2-(1-methyl-3-phenyl-4-(trifluoromethyl)-1H-pyrazolo[3,4-b]pyridin-6-yloxy)-N-(1,2,3,4-tetrahydronaphthalen-1-yl)acetamide] | – | – | 378 nM | 165 nM |
| C[C@H](NC(=O)COc1cc(C(F)(F)F)c2c(-c3cccc(Cl)c3)nn(C)c2n1)c1ccccc1 [Example 1.57, (S)-2-(3-(3-chlorophenyl)-1-methyl-4-(trifluoromethyl)-1H-pyrazolo[3,4-b]pyridin-6-yloxy)-N-(1-phenylethyl)acetamide] | – | – | 66 nM | 106 nM |
| COc1ccc([C@@H](C)NC(=O)COc2cc(C(F)(F)F)c3c(-c4ccccc4)nn(C)c3n2)cc1 [Example 1.59, (R)-N-(1-(4-methoxyphenyl)ethyl)-2-(1-methyl-3-phenyl-4-(trifluoromethyl)-1H-pyrazolo[3,4-b]pyridin-6-yloxy)acetamide] | – | – | 2290 nM | 949 nM |
| Cc1cc(OCC(=O)NC(C)c2ccncc2)nc2c1c(-c1ccccc1)nn2C (centres unmarked) [Example 1.63, 2-(1,4-dimethyl-3-phenyl-1H-pyrazolo[3,4-b]pyridin-6-yloxy)-N-(1-(pyridin-4-yl)ethyl)acetamide] | 34% | 27% | – | – |
| Cc1cc(OCC(=O)NC(C)c2cccnc2)nc2c1c(-c1ccccc1)nn2C (centres unmarked) [Example 1.64, 2-(1,4-dimethyl-3-phenyl-1H-pyrazolo[3,4-b]pyridin-6-yloxy)-N-(1-(pyridin-3-yl)ethyl)acetamide] | 39% | 26% | – | – |
| Cc1cc(OCC(=O)NC(C)c2ccccn2)nc2c1c(-c1ccccc1)nn2C (centres unmarked) [Example 1.65, 2-(1,4-dimethyl-3-phenyl-1H-pyrazolo[3,4-b]pyridin-6-yloxy)-N-(1-(pyridin-2-yl)ethyl)acetamide] | 30% | 26% | – | – |
| Cc1cccc(CNC(=O)COc2cc(C(F)(F)F)c3c(-c4ccccc4)nn(C)c3n2)c1 [Example 1.66, 2-(1-methyl-3-phenyl-4-(trifluoromethyl)-1H-pyrazolo[3,4-b]pyridin-6-yloxy)-N-(3-methylbenzyl)acetamide] | 41% | 23% | – | – |
| CC(C)CCNC(=O)COc1cc(C(F)(F)F)c2c(-c3ccccc3)nn(C)c2n1 [Example 1.68, N-isopentyl-2-(1-methyl-3-phenyl-4-(trifluoromethyl)-1H-pyrazolo[3,4-b]pyridin-6-yloxy)acetamide] | 16% | < 10% | – | – |
| Cc1cc(OCC(=O)N[C@@H](C)c2ccccc2)nc2c1c(C1CC1)nn2C [Example 1.69, (S)-2-(3-cyclopropyl-1,4-dimethyl-1H-pyrazolo[3,4-b]pyridin-6-yloxy)-N-(1-phenylethyl)acetamide] | – | – | 1010 nM | 938 nM |
| Cc1nn(C)c(C)c1C(C)NC(=O)COc1cc(C)c2c(C3CC3)nn(C)c2n1 (centres unmarked) [Example 1.72, 2-(3-cyclopropyl-1,4-dimethyl-1H-pyrazolo[3,4-b]pyridin-6-yloxy)-N-(1-(1,3,5-trimethyl-1H-pyrazol-4-yl)ethyl)acetamide] | – | – | 2120 nM | 1230 nM |
| Cc1cc(OCC(=O)N[C@H]2CCc3ccccc32)nc2c1c(C1CC1)nn2C [Example 1.75, (S)-2-(3-cyclopropyl-1,4-dimethyl-1H-pyrazolo[3,4-b]pyridin-6-yloxy)-N-(2,3-dihydro-1H-inden-1-yl)acetamide] | – | 27% | – | 809 nM |
